Data published in PMC8169650, “Identification of Small Molecule Inhibitors of a Mir155 Transcriptional Reporter in Th17 Cells” (Scientific Reports, 2021).

Columns and labels:
Mir155 reporter = Mir155 reporter Beta-Glo HTS assay (β-gal activity); assay type: cell-based, mouse; details: for EC50: Mus musculus, β-gal signal, 48 h, read-out: EC50, inhibition of Mir155 reporter expression; for EC50 / effect on Mir155 reporter expression: Th17 cells from Mir155 reporter mice; for effect on Mir155 reporter expression: dose response
Protocol: To develop an assay for the HTS screen, CD4^+ T cells were purified from spleen and lymph nodes of the Mir155 reporter mice. The purified CD4^+ T cells were cultured under Th17 cell-polarizing conditions in twelve well plates following which differentiated Th17 cells were transferred and expanded in six well plates followed by a resting period of 2 days in T cell media (schema depicted in Fig. 1a). We first optimized the cell number to maximize the assay window. To this end, differentiated Th17 cells were plated at different cell densities in the wells of polystyrene 1536-well plates under Th17 polarizing conditions. T cell activation was accomplished using two protocols. In the first protocol, magnetic beads coupled to anti-CD3 and anti-CD28 antibodies (CD3/CD28 microbeads) were added to mediate T cell activation as induction of MiR155 expression requires engagement of the TCR CD3 complex (signal 1) plus the co-stimulatory molecule CD28 (signal 2). The cells along with the beads were incubated at 37 °C, 5% CO2 for 48 h and, subsequently, high-throughput quantitation of β-gal activity was performed after 30 min of incubation using the Beta-Glo Assay system (Fig. 1b).
The NPC collection was screened at seven concentrations (top concentration 46 µM; 1:5 dilution thereafter) and drug response curves for the compounds were generated using our qHTS curve class classification algorithm as described above.
CD4^+ cells were purified from spleens and lymph nodes of Mir155 reporter mice as described above. Briefly, single cell suspensions were prepared by mechanical disruption followed by lysis of red blood cells with 0.83% ammonium chloride. CD4^+ T cells were either isolated by FACS sorting (BD FACS Aria) or were positively selected using magnetic CD4 microbeads (Miltenyi Biotec)[43]. 1 million CD4^+ cells/well were cultured in anti-CD3/CD28 (1 µg/ml each) coated 12 well plates under Th17 polarization conditions following which differentiated Th17 cells were transferred and expanded in six well plates followed by a resting period of 2 days in T cell media. A cocktail containing 10 ng/ml each of IL-6, IL-1 β, IL-21 and TGF-β (0.5 ng/ml) and IFNγ, IL-4, IL-12 neutralizing antibodies (10 μg/ml) was used for the Th17 polarizing conditions. For the HTS assay, 2000 differentiated Th17 cells/well in Th17 polarizing media were added to Greiner-one high base solid bottom white tissue culture treated 1536 well plates (catalog # 789173-F) using a small cassette and a Multidrop Combi dispenser (Thermo Fisher Scientific Inc.,Waltham, MA). Compounds were added using a Kalypsys pintool (Columns 5–48) and magnetic beads coupled to anti-CD3 and anti-CD28 (CD3/CD28 microbeads) were added to mediate T cell activation. CD3/CD28 microbeads were not added to first 2 columns and those wells served as basal control. DMSO was added to columns 3 and 4 and served as 100% signal. The plates were incubated for 48 h at 37 °C, 5% CO2, 95% humidity covered with low evaporation stainless steel lids from Kalypsys. After 48 h of incubation, 5 µl of Beta-Glo reagent (Beta Glo Assay System, Promega) was added using a Bioraptor Flying Reagent Dispenser (Aurora Discovery-BD) and the plates were incubated at room temperature for 30 min. Luminescence signal was captured using a 10 s exposure with a ViewLux (Perkin Elmer) containing a luminescent filter. Beta Glo reagent consists of Beta Glo substrate and buffer that are combined to form the Beta Glo reagent (Beta Glo Assay System, Promega).

[1] = tested on: IL-17 production in Th17 cells; experiment: Intracellular IL-17 flow cytometric cytokine assay under Th17 polarization; assay type: cell-based, mouse; details: for IL-17+ cells, gated on live CD4+CD44high cells / inhibition at 20 µM: 20 µM; for IL-17+ cells, gated on live CD4+CD44high cells: DMSO 32% (panel b), 36.8% (panel c); for inhibition at 20 µM: Mus musculus, 96 h, day 4, C57BL/6 CD4+ T cells, read-out: down-regulation (inhibition) of IL-17 production compared to control
Protocol: (§1) It has been previously shown that IL-17 production is defective in miR-155 deficient cells. […] To test the hit compounds for IL-17 downregulation, we purified naive CD4^+ T cells from C57BL/6 mice and cultured them under Th17 polarization condition. Small molecules at multiple concentrations (20 µM, 10 µM and 5 µM) were added 18 h post-plating of CD4^+ T cells on anti-CD3/CD28 coated plates and again on day 2 of culture (schema depicted in Fig. 3a).
(§2) Spleens and lymph nodes were harvested from mice and single cell suspensions were prepared by mechanical disruption followed by lysis of red blood cells with 0.83% ammonium chloride. CD4^+ T cells were either isolated by FACS sorting (BD FACS Aria) or were positively selected using magnetic CD4 microbeads (Miltenyi Biotec). For intracellular IL-17 quantitation by flow cytometry, 0.25 million cells/ well were plated in anti-CD3/CD28 (1 µg/ml) coated 48 well plates. A cocktail containing 10 ng/ml each of IL-6, IL-1 β, IL-21 and TGF-β (0.5 ng/ml) and IFNγ, IL-4, IL-12 neutralizing antibodies (10 μg/ml) was used for the Th17 polarizing conditions. All recombinant cytokines were purchased from R&D Systems and crosslinking antibodies were purified from hybridomas (Harlan). Cells were treated with small molecules at indicated concentrations at 18 h and 48 h of cell plating. On day 4 of the culture, cells were stimulated with 20 ng/ml of phorbol 12-myristate 13-acetate (PMA) and ionomycin (1 μg/ml) for 4 h in the presence of brefeldin A. Following stimulation, cells were stained with fixable viability dye (eBioscience) and surface stained for CD44 and CD4, permeabilized using cytofix/cytoperm (BD biosciences) and subsequently, stained for intracellular IL-17. Foxp3/Transcription Factor Staining kit (eBioscience) kit was used for intranuclear staining of RORγt. Samples were acquired on BD Fortessa and analyzed using Flowjo (Tree star Inc).

CD4+ T cells = experiment: Viability dye and CD44 activation staining in the IL-17 flow cytometric assay; assay type: cell-based; details: Fig. S2a
Protocol: as §1, §2

Th17 cells = experiment: RNA-seq of CD4+ T cells under Th17 polarizing conditions; assay type: cell-based, mouse; details: 20 µM, 24 h, vs DMSO
From the text: The (E)-1-(phenylsulfonyl)-2-styryl-1H-benzo[d] imidazoles were identified from the diversity library and the target for these compounds is not known. We investigated the possible molecular mechanism(s) regulating impaired Th17 cell function using whole-transcriptome RNA-sequencing (RNA-seq) of CD4^+ T cells treated with NCGC00108246 or NCGC00108250 (representative imidazole compounds) under Th17 polarizing conditions. We performed differential gene expression to compare the two imidazole-treated conditions (n = 6) to DMSO (n = 3). Imidazole treated samples (NCGC00108246 or NCGC00108250) had similar gene expression profiles and clustered together, and distinct from DMSO. […] We confirmed down-regulation of IL-17 cytokines (IL-17a and IL-17f.) in NCGC00108246 or NCGC00108250 treated cells (Fig. 4a,b). […] In alignment with the protein data, transcript levels for Th17 cell-specific transcription factor RORγt encoded by Rorc gene were not affected after treatment with imidazoles (Fig. S2b,c).
For RNA seq, T cells were treated with compounds for 24 h in Th17 polarizing conditions, following which RNA was extracted using the mirVana kit (Applied Biosystems). Qubit RNA broad range assay in the Qubit Flurometer (Invitrogen) was used to measure RNA concentration, following which RNA integrity was determined with Eukaryote Total RNA Nano Series II ChIP on a 2100 Bioanalyzer (Agilent). TruSeq RNA sample preparation kit (Illumina) was used to prepare RNA-seq libraries. Briefly, oligo-dT purified mRNA was fragmented and subjected to first and second strand cDNA synthesis. cDNA fragments were blunt ended, ligated to Illumina adaptors and PCR amplified to enrich for the fragments ligated to adaptors. The resulting cDNA libraries were verified and quantified on Agilent Bioanalyzer and single-end 96 cycle sequencing was conducted (Illumina) as previously described.
For data analysis, RNA-seq reads were aligned to the mm10 genome and the GRCm38 v87 transcriptome with STAR v2.5.2a[44] using default parameters and output tracks normalized by RPM (–outWigNorm RPM). RSEM v1.3[45] was used to calculate gene counts and TPMs on the transcriptome-aligned reads as previously described[16],[43]. Differential expression analysis was performed in R v3.5.2, using DESeq2[46] v1.22.2, resulting in 2328 differentially expressed genes when contrasting NCGC00108246 or NCGC00108250 treated samples versus DMSO controls. […] The volcano plot was generated with the R package (R-project.org at https://www.R-project.org/), Enhanced Volcano. Heatmaps were generated with the R package, pheatmap. Integrative Genomics Viewer v2.4.19[48] was used for visualization of normalized bigwig tracks.

[2] = fresh batch compared to older batch

Compound | EC50 (Mir155 reporter) | IL-17+ cells, gated on live CD4+CD44high cells [1] | inhibition at 20 µM [1] | effect on Mir155 reporter expression (Mir155 reporter) | further results
CSc1ccc(/C=C/c2nc3ccccc3n2S(=O)(=O)c2cccc(Cl)c2)cc1 [NCGC00108250] | 2 µM | 4.4% | 88% | – | IL-17 / RORγt plot, percent cells, gated on live CD4+CD44high ([1]; Fig. S2b, DMSO 32.4% / 21.2%): 3.2%; live cells (fixable viability dye, Live-dead) (CD4+ T cells; DMSO 77.4% / 80.6%): 80.5%; CD4+ CD44+ cells (CD4+ T cells; DMSO 97.2% / 98.2%): 96.1%; IL-17a and IL-17f transcripts (Th17 cells): down-regulation; IL-22 and IL-23r transcripts (Th17 cells): down-regulated
Clc1cccc(C(c2ccc3[nH]cnc3c2)n2ccnc2)c1 (stereo not shown) [liarozole, reference compound] | – | – | – | either modest down-regulators or did not affect Mir155 reporter expression | –
CC(=O)N1CCN(c2ccc(OCC3COC(Cn4ccnc4)(c4ccc(Cl)cc4Cl)O3)cc2)CC1 (stereo not shown) [ketoconazole, reference compound] | – | – | – | either modest down-regulators or did not affect Mir155 reporter expression | –
CSc1ccc(/C=C/c2nc3ccccc3[nH]2)cc1 [NCGC00507974, (E)-2-(4-(methylthio)styryl)-1H-benzo[d] imidazole] | 1.2 µM | – | – | dose dependent reduction of Mir155 reporter expression | effect on IL-17 production ([1]; C57BL/6 CD4+ T cells, Th17 polarization): dose-dependent inhibition of IL-17 production
c1ccc(-c2ccc(C(c3ccccc3)n3ccnc3)cc2)cc1 (stereo not shown) [bifonazole, reference compound] | – | – | – | either modest down-regulators or did not affect Mir155 reporter expression | –
Cc1ccc(/C=C/c2nc3ccccc3n2S(=O)(=O)c2ccc(Br)cc2)cc1 [NCGC00140607] | 3.7 µM | 16.6% | 55% | – | –
OC(Cn1cncn1)(Cn1cncn1)c1ccc(F)cc1F [fluconazole, reference compound] | – | – | – | either modest down-regulators or did not affect Mir155 reporter expression | –

More lines, main results first:

EC50 (Mir155 reporter) | Compound | IL-17+ cells, gated on live CD4+CD44high cells [1] | inhibition at 20 µM [1] | effect on Mir155 reporter expression (Mir155 reporter) | further results
0.6 µM | Cc1ccc(/C=C/c2nc3ccccc3n2S(=O)(=O)c2cccc(Cl)c2)cc1 [NCGC00140605] | 13.1% | 65% | – | –
3.5 µM | CCOc1ccc(/C=C/c2nc3ccccc3n2S(=O)(=O)c2cccc(Cl)c2)cc1 [NCGC00108246] | 3.1% | 90% | – | IL-17a and IL-17f transcripts (Th17 cells): down-regulation; IL-22 and IL-23r transcripts (Th17 cells): down-regulated
12.6 µM | CCOc1ccc(/C=C/c2nc3ccccc3n2S(=O)(=O)c2ccc(Br)cc2)cc1 [NCGC00108244] | 30.4% | 17% | – | –
2.2 µM | CSc1ccc(/C=C/c2nc3ccccc3n2S(=O)(=O)c2ccc(Br)cc2)cc1 [NCGC00108248, (E)-1-((4-bromophenyl)sulfonyl)-2-(4-(methylthio)styryl)-1H-benzo[d] imidazole] | 3.8% | 90% | – | activity in miR-155 HTS assay, solutions of fresh powders (Mir155 reporter; [2]): inactive or demonstrated attenuated activity; inhibition of IL-17, solutions of fresh powders [1, 2]: not potent inhibitors of IL-17
